Test: Storage stability of reversibly terminated nucleotides (percentage of deblocked nucleotides, in-house assay)
Assay type: physicochemical
Settings: for percentage of deblocked nucleotides (3′-OH, loss of reversible terminator) over time: stored at 20° C. over 21 days (vs. 4° C.)
Experimental: FIGS. 1A-1B depict storage stability studies of nucleotides stored at both 4° C. and 20° C. over a period of 21 days. The stability of the reversibly terminated nucleotide can be measured by the % of nucleotides that lose the reversible terminator moiety (e.g., via spontaneous fragmentation or reduction to yield a 3′-OH). […] (black) and 20° C. (light). […] (black) and 20° C. (light).
The stability of a reversibly terminated nucleotide can be measured by determining the loss of the reversible terminator over time. FIGS. 1A-1B depict the storage stability of nucleotides having a linear disulfide RT and cyclic disulfide RT stored at both 4° C. and 20° C. over a period of 21 days. The linear disulfide RT tested has the structure:
A buffer containing 200 nM of each nucleotide was stored at 4° C. and 20° C. over a period of 21 days and the percentage of deblocked nucleotides (i.e., those having loss of 3′-OH reversible terminator) was determined using an in-house assay. The stability of the reversibly terminated nucleotide can be measured by the % of nucleotides that lose the reversible terminator moiety (e.g., via spontaneous fragmentation or reduction to yield a 3′-OH). […] (black) and 20° C. (light). […] (black) and 20° C. (light). As observed in FIG. 1A, the average percentage of reversible terminator loss is about 0.13%+/−0.05% when stored at 4° C., and is considered relatively stable when stored under these conditions. […] Subsequent storage stability studies indicate the nucleotides are stable, wherein the average percentage of reversible terminator loss is less than about 0.15%, beyond 120 days at both 20° C. and 4° C.

[1] = buffer containing 200 nM nucleotide

## CSSC(C)OC1CC(n2cc(C)c(=O)[nH]c2=O)OC1COP(=O)(O)OP(=O)(O)OP(=O)(O)O (centres unmarked) [linear disulfide RT, reference compound]
Buffer containing 200 nM nucleotide, stored at 4° C. over 21 days
  average percentage of reversible terminator loss: about 0.13%+/−0.05
[1]
  percentage of deblocked nucleotides (3′-OH, loss of reversible terminator) over time: grows over time

## Cc1cn(C2CC(OC3CCCSS3)C(COP(=O)(O)OP(=O)(O)OP(=O)(O)O)O2)c(=O)[nH]c1=O (centres unmarked) [cyclic disulfide RT]
[1]
  percentage of deblocked nucleotides (3′-OH, loss of reversible terminator) over time: less prone to spontaneously losing the 3′ reversible terminator
Subsequent storage stability studies, beyond 120 days at 4° C.
  average percentage of reversible terminator loss: less than 0.15%
Subsequent storage stability studies, beyond 120 days at 20° C.
  average percentage of reversible terminator loss: less than 0.15%

— US20250250629A1, “NUCLEOTIDE CYCLIC CLEAVABLE MOIETIES AND USES THEREOF” (Singular Genomics Systems, Inc., priority 2022, published 2025)
